The assay concerns the target T1, dMpped (Drosophila melanogaster, UniProt Q9VT29).
T1 construct: gene Mpped; full-length coding region (300 residues) amplified from whole-fly cDNA; E. coli BL21DE3; gel filtration; about 37 kDa on gel
The experiment in a line: colorimetric p-nitrophenol release, […] nm. It is filed as biochemical. The note with it: Mn2+ as metal cofactor (5 mM in standard assay); pH 9.0 triple buffer; 5 mM 2-mercaptoethanol; 10 mM NaCl.

T1 sequence (Q9VT29 entry or part of it): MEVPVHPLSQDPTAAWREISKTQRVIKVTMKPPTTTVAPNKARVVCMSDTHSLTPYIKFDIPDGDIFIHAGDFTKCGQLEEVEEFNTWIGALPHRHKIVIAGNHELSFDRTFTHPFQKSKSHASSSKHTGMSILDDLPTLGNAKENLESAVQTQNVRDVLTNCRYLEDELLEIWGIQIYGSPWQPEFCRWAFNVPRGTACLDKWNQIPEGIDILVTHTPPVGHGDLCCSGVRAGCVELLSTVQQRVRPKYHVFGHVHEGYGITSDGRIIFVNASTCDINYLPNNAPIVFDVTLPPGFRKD

For `O=[N+]([O-])c1ccc(OP(=O)(O)c2ccccc2)cc1` [pNPPP], the Michaelis-Menten constant (Km) was approximately 10 mM.
